According to patent US20140357655A1, “SPIROINDOLINE DERIVATIVES AS GONADOTROPIN- RELEASING HORMONE RECEPTOR ANTAGONISTS” (Bayer Intellectual Property GmbH, priority 2012, published 2014):

Target: T1, human GnRH receptor (Homo sapiens, UniProt P30968)
T1 sequence (P30968 1-328): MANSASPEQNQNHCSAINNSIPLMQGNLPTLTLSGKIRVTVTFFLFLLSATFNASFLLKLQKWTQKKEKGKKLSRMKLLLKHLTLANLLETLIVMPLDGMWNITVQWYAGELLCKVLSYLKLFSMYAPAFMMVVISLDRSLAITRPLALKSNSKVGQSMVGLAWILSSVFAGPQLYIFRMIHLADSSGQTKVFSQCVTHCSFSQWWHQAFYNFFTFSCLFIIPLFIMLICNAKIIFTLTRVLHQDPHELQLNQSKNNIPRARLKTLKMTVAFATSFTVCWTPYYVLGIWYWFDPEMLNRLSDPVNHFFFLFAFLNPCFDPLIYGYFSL
Assay: IP-One HTRF assay with buserelin (at EC80) stimulation
Format: cell-based
Conditions: CHO cells stably expressing human GnRH receptor, read-out: Potency in IP-One HTRF assay, given as IC50
In short: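 CHO cells stably expressing human GnRH receptor, preincubated 1 h at 37° C with IP1-d2, were exposed to compound and buserelin at EC80 for 1 h at 37° C. After lysis with Tb-anti-IP1 antibody (1 h, 22° C), 665/620 nm HTRF ratio read; 10 concentrations, 20 μM–1 nM, duplicates, 4-parameter IC50.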

SMILES | IC50 [nM]
O=C(O)c1cccc(S(=O)(=O)N2c3ccc(C(=O)NCc4ccccc4Cl)cc3C3(CCS(=O)(=O)CC3)C2C2CC2)c1 (single isomer, unassigned) [Example 61.1, 3-({5-[(2-chlorobenzyl)carbamoyl]-2-cyclopropyl-1′,1′-dioxido-2′,3′,5′,6′-tetrahydrospiro[indole-3,4′-thiopyran]-1(2H)-yl}sulfonyl)benzoic acid] | 84
N#Cc1ccc(S(=O)(=O)N2c3ccc(C(=O)NCc4ncccc4Cl)cc3C3(CCS(=O)(=O)CC3)C2C2CC2)cc1 (single isomer, unassigned) [Example 70.2, N-[(3-chloropyridin-2-yl)methyl]-1-[(4-cyanophenyl)sulfonyl]-2-cyclopropyl-1,2,2′,3′,5′,6′-hexahydrospiro[indole-3,4′-thiopyran]-5-carboxamide 1′,1′-dioxide] | 202
C=CCC1N(S(=O)(=O)c2cccc(C(=O)O)c2)c2ccc(C(=O)NCc3ccccc3Cl)cc2C12CCS(=O)(=O)CC2 (stereo not shown) [Example 56, 3-({5-[(2-chlorobenzyl)carbamoyl]-1′,1′-dioxido-2-(prop-2-en-1-yl)-2′,3′,5′,6′-tetrahydrospiro[indole-3,4′-thiopyran]-1(2H)-yl}sulfonyl)benzoic acid] | 136
O=C(NCc1ccccc1Cl)c1ccc2c(c1)C1(CCS(=O)(=O)CC1)C(C1CC1)N2S(=O)(=O)c1ccc(F)cc1 (single isomer, unassigned) [Example 18.2, N-(2-chlorobenzyl)-2-cyclopropyl-1-[(4-fluorophenyl)sulfonyl]-1,2,2′,3′,5′,6′-hexahydrospiro[indole-3,4′-thiopyran]-5-carboxamide 1′,1′-dioxide] | 5240
N#Cc1cccc(S(=O)(=O)N2c3ccc(C(=O)Nc4cncc(Cl)c4)cc3C3(CCS(=O)(=O)CC3)C2C2CC2)c1 (stereo not shown) [Example 77, N-(5-chloropyridin-3-yl)-1-[(3-cyanophenyl)sulfonyl]-2-cyclopropyl-1,2,2′,3′,5′,6′-hexahydrospiro[indole-3,4′-thiopyran]-5-carboxamide 1′,1′-dioxide] | 700
COc1cccc(S(=O)(=O)N2c3ccc(C(=O)Nc4cccc(S(=O)(=O)N(C)C)c4)cc3C3(CCS(=O)(=O)CC3)C2C2CC2)c1 (stereo not shown) [Example 43, 2-cyclopropyl-N-[3-(N,N-dimethylsulfamoyl)phenyl]-1-[(3-methoxyphenyl)sulfonyl]-1,2,2′,3′,5′,6′-hexahydrospiro[indole-3,4′-thiopyran]-5-carboxamide 1′,1′-dioxide] | 56
Cc1cccnc1CNC(=O)c1ccc2c(c1)C1(CCS(=O)(=O)CC1)C(C1CC1)N2S(=O)(=O)c1ccc(F)cc1 (stereo not shown) [Example 31, 2-cyclopropyl-1-[(4-fluorophenyl)sulfonyl]-N-[(3-methylpyridin-2-yl)methyl]-1,2,2′,3′,5′,6′-hexahydrospiro[indole-3,4′-thiopyran]-5-carboxamide 1′,1′-dioxide] | 503
O=C(NCc1ccccc1Cl)c1ccc2c(c1)C1(CCSCC1)C(C1CC1)N2S(=O)(=O)c1ccc(F)cc1 (single isomer, unassigned) [Example 12.1, N-(2-Chlorobenzyl)-2-cyclopropyl-1-[(4-fluorophenyl)sulfonyl]-1,2,2′,3′,5′,6′-hexahydrospiro[indole-3,4′-thiopyran]-5-carboxamide] | 178
Cc1cccnc1CNC(=O)c1ccc2c(c1)C1(CCS(=O)(=O)CC1)C(C1CC1)N2S(=O)(=O)c1ccc(F)cc1 (single isomer, unassigned) [Example 31.1, 2-cyclopropyl-1-[(4-fluorophenyl)sulfonyl]-N-[(3-methylpyridin-2-yl)methyl]-1,2,2′,3′,5′,6′-hexahydrospiro[indole-3,4′-thiopyran]-5-carboxamide 1′,1′-dioxide] | 266
COC(=O)c1cccc(S(=O)(=O)N2c3ccc(C(=O)NCc4ccccc4Cl)cc3C3(CCS(=O)(=O)CC3)C2C2CC2)c1 (single isomer, unassigned) [Example 60.2, methyl 3-({5-[(2-chlorobenzyl)carbamoyl]-2-cyclopropyl-1′,1′-dioxido-2′,3′,5′,6′-tetrahydrospiro[indole-3,4′-thiopyran]-1(2H)-yl}sulfonyl)benzoate] | 1140
CC1N(S(=O)(=O)c2ccc(F)cc2)c2ccc(C(=O)NCc3ncc(F)cc3Cl)cc2C12CCOCC2 (stereo not shown) [Example 5, N-[(3-chloro-5-fluoropyridin-2-yl)methyl]-1-[(4-fluorophenyl)sulfonyl]-2-methyl-1,2,2′,3′,5′,6′-hexahydrospiro[indole-3,4′-pyran]-5-carboxamide] | 345
N#Cc1ccc(S(=O)(=O)N2c3ccc(C(=O)Nc4cncc(Cl)c4)cc3C3(CCS(=O)(=O)CC3)C2C2CC2)cc1 (single isomer, unassigned) [Example 71.2, N-(5-chloropyridin-3-yl)-1-[(4-cyanophenyl)sulfonyl]-2-cyclopropyl-1,2,2′,3′,5′,6′-hexahydrospiro[indole-3,4′-thiopyran]-5-carboxamide 1′,1′-dioxide] | 1630
N#Cc1ccc(S(=O)(=O)N2c3ccc(C(=O)Nc4cncc(Cl)c4)cc3C3(CCS(=O)(=O)CC3)C2C2CC2)cc1 (single isomer, unassigned) [Example 71.1, N-(5-chloropyridin-3-yl)-1-[(4-cyanophenyl)sulfonyl]-2-cyclopropyl-1,2,2′,3′,5′,6′-hexahydrospiro[indole-3,4′-thiopyran]-5-carboxamide 1′,1′-dioxide] | 49
CN(C)C(=NS(=O)(=O)c1cccc(NC(=O)c2ccc3c(c2)C2(CCS(=O)(=O)CC2)C(C2CC2)N3S(=O)(=O)c2ccc(F)cc2)c1)N(C)C (single isomer, unassigned) [Example 64.2, N-(3-{[bis(dimethylamino)methylidene]sulfamoyl}phenyl)-2-cyclopropyl-1-[(4-fluorophenyl)sulfonyl]-1,2,2′,3′,5′,6′-hexahydrospiro[indole-3,4′-thiopyran]-5-carboxamide 1′,1′-dioxide] | 66
O=C(NCc1ccccc1Cl)c1ccc2c(c1)C1(CCS(=O)(=O)CC1)C(C1CC1)N2S(=O)(=O)c1ccc(F)cc1 (stereo not shown) [Example 18, N-(2-chlorobenzyl)-2-cyclopropyl-1-[(4-fluorophenyl)sulfonyl]-1,2,2′,3′,5′,6′-hexahydrospiro[indole-3,4′-thiopyran]-5-carboxamide 1′,1′-dioxide] | 47
O=C(NC1CCOc2ccccc21)c1ccc2c(c1)C1(CCS(=O)(=O)CC1)C(C1CC1)N2S(=O)(=O)c1ccc(F)cc1 (single isomer, unassigned) [Example 33.3, 2-cyclopropyl-N-(3,4-dihydro-2H-chromen-4-yl)-1-[(4-fluorophenyl)sulfonyl]-1,2,2′,3′,5′,6′-hexahydrospiro[indole-3,4′-thiopyran]-5-carboxamide 1′,1′-dioxide] | > 20000
O=C(NCc1ccccc1C(F)F)c1ccc2c(c1)C1(CCS(=O)(=O)CC1)C(C1CC1)N2S(=O)(=O)c1ccc(F)cc1 (single isomer, unassigned) [Example 68.2, 2-cyclopropyl-N-[2-(difluoromethyl)benzyl]-1-[(4-fluorophenyl)sulfonyl]-1,2,2′,3′,5′,6′-hexahydrospiro[indole-3,4′-thiopyran]-5-carboxamide 1′,1′-dioxide] | 143
O=C(Nc1ccon1)c1ccc2c(c1)C1(CCS(=O)(=O)CC1)C(C1CC1)N2S(=O)(=O)c1ccc(F)cc1 (single isomer, unassigned) [Example 63.1, 2-cyclopropyl-1-[(4-fluorophenyl)sulfonyl]-N-(1,2-oxazol-3-yl)-1,2,2′,3′,5′,6′-hexahydrospiro[indole-3,4′-thiopyran]-5-carboxamide 1′,1′-dioxide] | 88
CS(=O)(=O)c1cccc(NC(=O)c2ccc3c(c2)C2(CCS(=O)(=O)CC2)C(C2CC2)N3S(=O)(=O)c2ccc(F)cc2)c1 (stereo not shown) [Example 23, 2-cyclopropyl-1-[(4-fluorophenyl)sulfonyl]-N-(3-mesylphenyl)-1,2,2′,3′,5′,6′-hexahydrospiro[indole-3,4′-thiopyran]-5-carboxamide 1′,1′-dioxide] | 328
N#Cc1cccc(S(=O)(=O)N2c3ccc(C(=O)NCc4ncccc4C(F)(F)F)cc3C3(CCS(=O)(=O)CC3)C2C2CC2)c1 (single isomer, unassigned) [Example 79.2, 1-[(3-cyanophenyl)sulfonyl]-2-cyclopropyl-N-{[3-(trifluoromethyl)pyridin-2-yl]methyl}-1,2,2′,3′,5′,6′-hexahydrospiro[indole-3,4′-thiopyran]-5-carboxamide 1′,1′-dioxide] | 1020
N#Cc1ccc(S(=O)(=O)N2c3ccc(C(=O)NCc4ncccc4Cl)cc3C3(CCS(=O)(=O)CC3)C2C2CC2)cc1 (single isomer, unassigned) [Example 70.1, N-[(3-chloropyridin-2-yl)methyl]-1-[(4-cyanophenyl)sulfonyl]-2-cyclopropyl-1,2,2′,3′,5′,6′-hexahydrospiro[indole-3,4′-thiopyran]-5-carboxamide 1′,1′-dioxide] | 33
O=C(NCc1ncccc1C(F)(F)F)c1ccc2c(c1)C1(CCS(=O)(=O)CC1)C(C1CC1)N2S(=O)(=O)c1ccc(OC(F)F)cc1 (stereo not shown) [Example 93, 2-cyclopropyl-1-{[4-(difluoromethoxy)phenyl]sulfonyl}-N-{[3-(trifluoromethyl)pyridin-2-yl]methyl}-1,2,2′,3′,5′,6′-hexahydrospiro[indole-3,4′-thiopyran]-5-carboxamide 1′,1′-dioxide] | 53
